Patent US20250108053A1, “RIBOCICLIB PHARMACEUTICAL COMPOSITIONS” (Novartis AG, priority 2022, published 2025)
Blank lines part the entries; values can stand above or below the compound they belong to.

Test: Preliminary studies of ribociclib succinate in oral solutions: pH, solubility, preservatives
Text: To achieve a clear solution of ribociclib succinate upon reconstitution, sufficient quantity of acid is needed to adjust the pH of the liquid into an acidic range for ribociclib succinate to completely solubilize. For use in the present invention, suitable solubilizers are in the form of an acid.

[1] = oral solutions of ribociclib succinate

Structure (SMILES): C/C=C/C=C/C(=O)[O-].[K+] [potassium sorbate]
pH required by the preservative [1]: about 3.5

Solubility in basic pH as compared to acidic pH: limited solubility in basic pH | pH range in which a clear solution was achieved (ribociclib succinate in oral solutions): 3.5-4.5
Structure (SMILES): CN(C)C(=O)c1cc2cnc(Nc3ccc(N4CCNCC4)cn3)nc2n1C1CCCC1.O=C(O)CCC(=O)O [ribociclib succinate]

Structure (SMILES): O=C([O-])c1ccccc1.[Na+] [sodium benzoate]
Observation in oral solution formulations with the preservative [1]: precipitation was observed
